Results published in patent US12089597B2, “Active ingredient combinations with insecticidal, nematicidal and acaricidal properties” (BAYER AKTIENGESELLSCHAFT, priority 2018, dated 2024).

Experiments:
Meloidogyne incognita [1] = assay: Example A: Meloidogyne incognita test (gall formation on lettuce roots in sand); format: in vivo; details: nematicidal action by gall formation, 100% = no galls
Source text: (§1) • The expected activity for a given combination of two active ingredients can be calculated as follows, according to S. R. Colby (“Calculating Synergistic and Antagonistic Responses of Herbicide Combinations”, Weeds 15, 20-22, 1967): • If • X is the kill rate, expressed as % of the untreated control, when using active ingredient A at an application rate of m g/ha or in a concentration of m ppm, • Y is the kill rate, expressed as % of the untreated control, when using active ingredient B at an application rate of n g/ha or in a concentration of n ppm and • E is the kill rate, expressed as % of the untreated control, when using active ingredients A and B at application rates of m and n g/ha or in a concentration of m and n ppm, • then
(§2) [formula] • If the actual kill rate is greater than the calculated kill rate (E), the action of the combination is superadditive, i.e. a synergistic effect is present.
(§3) Meloidogyne incognita Test
(§4) • Solvent: 125.0 parts by weight of acetone
(§5) To produce an appropriate active ingredient formulation, 1 part by weight of active ingredient is mixed with the stated amount of solvent and the concentrate is diluted to the desired concentration with water.
(§6) Vessels are filled with sand, active ingredient solution, an egg/larvae suspension of the southern root-knot nematode (Meloidogyne incognita) and lettuce seeds. The lettuce seeds germinate and the plants develop. The galls develop on the roots.
(§7) After the desired period of time, the nematicidal action is determined in % by the gall formation. 100% means that no galls were found; 0% means that the number of galls on the treated plants corresponds to the untreated control. The values ascertained are entered into Colby's formula.

Meloidogyne incognita [2] = assay: Example B: Meloidogyne incognita test (gall formation on lettuce roots in sand); format: in vivo; details: nematicidal action by gall formation, 100% = no galls
Source text: as §1, §2, §3, §4, §5, §6, §7

| Compound | Effect in % after 14 days (Meloidogyne incognita [1]; 3 ppm) [%] | Effect in % after 14 days (Meloidogyne incognita [1]; 6 ppm) [%] | Effect in % after 14 days (Meloidogyne incognita [1]; 12 ppm) [%] | Effect in % after 14 days (Meloidogyne incognita [2]; 1.6 ppm) [%] | Effect in % after 14 days (Meloidogyne incognita [2]; 3.2 ppm) [%] | Effect in % after 14 days (Meloidogyne incognita [2]; 6.4 ppm) [%] | Effect in % after 14 days (Meloidogyne incognita [1]; 1.2 ppm) [%] | Effect in % after 14 days (Meloidogyne incognita [1]; 2.4 ppm) [%] | Effect in % after 14 days (Meloidogyne incognita [1]; 4.8 ppm) [%] | Effect in % after 14 days (Meloidogyne incognita [2]; 0.4 ppm) [%] | Effect in % after 14 days (Meloidogyne incognita [2]; 0.8 ppm) [%] |
| --- | --- | --- | --- | --- | --- | --- | --- | --- | --- | --- | --- |
| O=C(Nc1ccn(-c2c(F)cccc2F)n1)c1ccccc1C(F)(F)F [Compound (B-1)] | 0 | 0 | 70 | – | – | – | – | – | – | – | – |
| c1ccc(-c2noc(-c3cccs3)n2)cc1 [Tioxazafen (B-2), Tioxazafen] | – | – | – | 0 | 0 | 70 | – | – | – | – | – |
| Cc1cc(Cl)cc(C)c1C1=C(O)C2(CCC3(CC2)OCCO3)NC1=O [Compound (I-2)] | – | – | – | 0 | – | – | 0 | 0 | 0 | 0 | 0 |
